Assay results reported in patent US20150157588A1, “Pharmaceutical Composition Comprising Amino-Phenyl-Acetic Acid Octadec-(Z)-9-enyl Ester and Use Thereof for Treating Tumors” (Yeda Research and Development Co., Ltd., priority 2012, published 2015).

What was measured:
[1] = test system: Clone D122 of the 3LL mouse Lewis Lung carcinoma; experiment: Lung carcinoma mouse model: 3LL cells in footpad, local growth and mortality from lung metastasis after excision; format: in vivo; conditions: for day of 50% mortality from lung metastasis: 100 μg in PBS subcutaneously twice weekly
Experimental: Clone D122 of the 3LL mouse Lewis Lung carcinoma, a standard model of growth and metastasis, was used. Syngeneic 8-weeks old C57BL/6 male mice were injected into one hind footpad with 50,000 3LL tumor cells. Local growth of the tumor was followed. Tumors that reached the size of 8 mm×8 mm were excised; tumor excision at this stage was known to trigger the growth of lung metastases that eventually killed the mice. This model allows for investigation of the effect of treatment on two phases of the tumor progression: 1) the effect on local growth, as determined by the time it takes for the tumors to reach the size for excision; and 2) the effect on tumor metastasis as measured by the time it takes for death to occur after excision.
Three groups of 12-13 mice each were injected with 3LL tumor cells as described in the Materials and Methods section, and were treated subcutaneously with 100 μg of amino-phenyl-acetic acid octadec-(Z)-9-enyl ester injected twice weekly (every Monday and Thursday) either from day 6 after tumor injection (to investigate the effect on local growth and metastasis) or from the time of excision of the tumor (to investigate the effect on metastasis only), or were injected with PBS as a control. […] Tumors were excised on the same day. Mice treated with PBS or mice treated with amino-phenyl-acetic acid octadec-(Z)-9-enyl ester in PBS only following tumor excision reached excision size beginning on day 25 (white bars). In contrast, mice treated with amino-phenyl-acetic acid octadec-(Z)-9-enyl ester from day 6 following injection (black bars) reached excision size on day 32, and all mice were excised by day 41.
The PBS-treated mice reached 50% mortality on day 50 (triangles); the mice receiving amino-phenyl-acetic acid octadec-(Z)-9-enyl ester in PBS after tumor excision reached 50% mortality only on day 68 (squares); and the mice treated with amino-phenyl-acetic acid octadec-(Z)-9-enyl ester in PBS from day 6 following tumor implantation reached 50% mortality on day 90 (circles).

virulent 3LL clone, D122 = experiment: 3LL induced lung carcinoma, intravenous injection of D122 cells, deaths and lung weight; format: in vivo, mouse; conditions: for lung weight of the living mice: in mg (unit assumed); for number of dead mice: groups of 10, control seven
Experimental: 8-weeks old C57BL/6 male mice in groups of 10 were injected intravenously with 500,000 cells of a virulent 3LL clone, D122. Mice were treated daily for 35 days with either 5% ethanol in PBS (control); 100 μg amino-phenyl-acetic acid octadec-(Z)-9-enyl ester in 5% ethanol in PBS subcutaneously (SC); or 100 μg amino-phenyl-acetic acid octadec-(Z)-9-enyl ester in 5% ethanol in PBS intranasally (IN).
8-weeks old C57BL/6 male mice in groups of 10 were injected intravenously with 500,000 cells of a virulent 3LL clone, D122. Mice either left untreated, or were treated daily for 30 days with intranasal administration of either 5% ethanol in PBS (control); 100 μg of amino-phenyl-acetic acid octadec-(Z)-9-enyl ester in PBS; or 100 μg of amino-phenyl-acetic acid octadec-(Z)-9-enyl ester in 5% ethanol in PBS.
As shown in FIGS. 7A-7D, while treatment with amino-phenyl-acetic acid octadec-(Z)-9-enyl ester in PBS reduced the lung weight of the living mice from 718±351 in the control mice treated with 5% ethanol in PBS to 671±187 (FIGS. 7B-7C), treatment with amino-phenyl-acetic acid octadec-(Z)-9-enyl ester in ethanol solution reduced the lung weight of the living mice to 317±103 (FIG. 7D).

[2] = 100 μg in PBS subcutaneously twice weekly from day 6 after tumor injection
[3] = 100 μg in 5% ethanol in PBS intranasally daily for 35 days
[4] = 100 μg in 5% ethanol in PBS subcutaneously daily for 35 days

**Q.** For CCCCCCCC/C=C\CCCCCCCCOC(=O)C(N)c1ccccc1 (centres unmarked) [amino-phenyl-acetic acid octadec-(Z)-9-enyl ester], which “day after tumor injection on which mice reached excision size (8 mm×8 mm)” value [1, 2] is on record?
**A.** 32 days

**Q.** And the “day by which all mice were excised” value [1, 2]?
**A.** ≤ 41 days

**Q.** What about the “day of 50% mortality from lung metastasis” value ([1]; from day 6 following tumor implantation) of the same compound?
**A.** 90 days

**Q.** What about the “day of 50% mortality from lung metastasis” value ([1]; from tumor excision) of the same compound?
**A.** 68 days

**Q.** What about the “effect on local tumor growth” value ([1]; twice weekly at the dose of 100 μg, in PBS, subcutaneously) of the same compound?
**A.** inhibited local tumor growth

**Q.** And the “lung weight of the living mice” value (virulent 3LL clone, D122; 100 μg in 5% ethanol in PBS intranasally daily for 30 days)?
**A.** 317±103

**Q.** What about the “number of dead mice” value (virulent 3LL clone, D122; [3]) of the same compound?
**A.** a single mouse

**Q.** And the “lung weight of the living mice” value (virulent 3LL clone, D122; [3])?
**A.** 259±84

**Q.** What about the “number of dead mice” value (virulent 3LL clone, D122; [4]) of the same compound?
**A.** four

**Q.** And the “lung weight of the living mice” value (virulent 3LL clone, D122; [4])?
**A.** 501±252

**Q.** And the “lung weight of the living mice” value (virulent 3LL clone, D122; 100 μg in PBS intranasally daily for 30 days)?
**A.** 671±187
